# What was measured:
# [1] = cited from earlier work
# [2] = Stability to hydrolysis versus commercial formulations; format: physicochemical; settings: in a CX, microencapsulated in NPμ and combined with sulfosate
# Source text: This refers to the typical variations: thifensulfuron-ethyl<→thifensulfuron, etc.
# [3] = Accelerated heat stability test (54° C.), physical stability and chemical degradation by HPLC; format: physicochemical; settings: NPμ in a CX-w; results and process not shown
# Method: Both formulations were submitted to accelerated heat stability tests (at 54° C. for 2 weeks).
# Also, presence of unencapsulated material—water soluble a.i.—was below 0.1%.
# These tests were performed with HPLC and standard methods of analysis under Good Laboratory Practice conditions.
smiles,measurement,setting,value
O=C(O)c1cc(Oc2ccc(C(F)(F)F)cc2Cl)ccc1[N+](=O)[O-] [acifluorfen-sodium],solubility in isooctanol,[1]; isooctanol,around 6 g/L
same,solubility in water,[1]; water,about 60 g/L
COc1cc(OC)nc(NC(=O)NS(=O)(=O)c2ncccc2C(=O)N(C)C)n1 [nicosulfuron],more stable to hydrolysis than current commercial formulations,[2],at least 20 % times
CC(C)(C)C(O)(CCc1ccc(Cl)cc1)Cn1cncn1 (centres unmarked) [tebuconazole],solubility in hexane,[1]; hexane,lower than 0.1 g/L
COC(=O)c1ccccc1S(=O)(=O)NC(=O)N(C)c1nc(C)nc(OC)n1 [tribenuron-methyl],degradation inhibition by microencapsulation,[3],equally observed

# — patent US8337900B2, “Reverse-phase microcapsules for active ingredients, simplified process of manufacture thereof and combined formulation WDG-CS, ZC, EC-SC, and CX” (priority 2006, dated 2012)
